Test results taken from ChEMBL document CHEMBL3044565, “Pharmacopore hypothesis generation of BACE-1 inhibitors and pharmacophore-driven identification of potent multi-target neuroprotective agents” (Med Chem Res, 2012).
*1 amine or outer side, *2 acyl side, *3 side chain or, on linkers, in order; H or OH if unused. Where a SMILES comes first, the peptide text is derived from it. [ ]: non-standard residue; d: D form. LeuΨ(S-CHOHCH2)Ala = CC(C)C[C@H](N[*:1])[C@@H](O)C[C@@H](C)C(=O)[*:2]

Assays:
Beta-secretase 1 [1] = molecular target: T1, Beta-secretase 1 (Homo sapiens, UniProt P56817); experiment: Inhibition of BACE1 (unknown origin) at 10 ug/ml after 1 hr by FRET assay
[2] = Neuroprotective activity in Homo sapiens (human) SH-SY5Y cells assessed as reduction of amyloid beta-induced cell death at 10 ug/ml inubated for 1 hr prior to amyloid beta induction measured after 48 hr by MTT assay; assay type: functional; set-up: scale not given: the % may be the effect or the level left
Beta-secretase 1 [3] = molecular target: T1, Beta-secretase 1; experiment: Inhibition of BACE1 (unknown origin)
Beta-secretase 1 [4] = molecular target: T1, Beta-secretase 1; experiment: Inhibition of Homo sapiens (human) Beta-secretase 1

T1 sequence (P56817 whole entry): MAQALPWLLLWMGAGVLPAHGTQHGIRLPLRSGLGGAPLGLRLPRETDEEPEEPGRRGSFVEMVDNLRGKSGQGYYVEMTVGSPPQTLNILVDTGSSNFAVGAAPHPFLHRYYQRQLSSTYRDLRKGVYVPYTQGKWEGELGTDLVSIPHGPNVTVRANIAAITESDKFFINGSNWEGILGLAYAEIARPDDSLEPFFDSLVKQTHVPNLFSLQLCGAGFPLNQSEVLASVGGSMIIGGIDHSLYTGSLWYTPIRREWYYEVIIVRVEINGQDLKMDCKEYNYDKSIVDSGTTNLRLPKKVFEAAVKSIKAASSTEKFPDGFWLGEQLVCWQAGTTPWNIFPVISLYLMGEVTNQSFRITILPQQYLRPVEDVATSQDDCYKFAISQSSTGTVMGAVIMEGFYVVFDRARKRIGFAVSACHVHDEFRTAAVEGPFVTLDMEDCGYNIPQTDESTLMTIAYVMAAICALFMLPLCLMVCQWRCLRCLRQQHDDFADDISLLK

| Ki (Beta-secretase 1 [3]) [nM] | IC50 (Beta-secretase 1 [4]) [nM] | SMILES | inhibition (Beta-secretase 1 [1]) [%] | Activity [2] [%] |
| --- | --- | --- | --- | --- |
|  |  | O=C(Nc1nc(-c2ccccc2)cs1)c1ccncc1 | 29.1 | 8.2 |
|  |  | O=C(/C=C/c1ccccc1)Nc1nc(-c2ccccc2)cs1 | 23.6 |  |
|  |  | CCOC(=O)CCC(=O)NC1=NC2CCCCC2S1 (stereo not given) | 26.7 | 26.1 |
| 1.6 | 2 | CC(C)C[C@H](NC(=O)[C@H](CC(N)=O)NC(=O)[C@@H](NC(=O)[C@@H](N)CC(=O)O)C(C)C)[C@@H](O)C[C@@H](C)C(=O)N[C@@H](C)C(=O)N[C@@H](CC(=O)O)C(=O)N[C@@H](Cc1ccccc1)C(=O)O (H-DVN[LeuΨ(S-CHOHCH2)Ala]ADF-OH) |  |  |
|  |  | CCOC(=O)CCC(=O)Nc1nc(-c2ccccc2)cs1 | 31.8 | 45.5 |
|  |  | COc1cc(/C=C/C(=O)Nc2nc(-c3ccccc3)cs2)cc(OC)c1 | 24.5 |  |
